Measured values taken from the NIST ThermoML archive (doi:10.1016/j.jct.2016.08.010).

Experiment: molar heat capacity at constant pressure; xn = mol fraction of the nth substance listed
Settings: 100 kPa, Liquid, Small sample (50 mg) DSC

CCCCn1cc[n+](C)c1C.F[B-](F)(F)F [1-butyl-2,3-dimethylimidazolium tetrafluoroborate] + CCn1cc[n+](C)c1.F[B-](F)(F)F
molar heat capacity at constant pressure [J/K/mol]
Settings	293.15 K	298.15 K	303.15 K	308.15 K
x1 = 0.1129	319.45	321.79	324.44	327.05
x1 = 0.1657	325.94	328.52	331.39	334.26
x1 = 0.2189	331.85	334.58	337.61	340.64
x1 = 0.2743	337.42	340.23	343.39	346.51
x1 = 0.3272	342.26	345.15	348.38	351.58
x1 = 0.3729	346.15	349.09	352.37	355.65
x1 = 0.4382	351.36	354.4	357.74	361.09
x1 = 0.4917	355.44	358.6	362.01	365.39
x1 = 0.5242	357.91	361.14	364.6	368.01
x1 = 0.5687	361.32	364.66	368.19	371.64
x1 = 0.6042	364.11	367.55	371.14	374.62
x1 = 0.6468	367.63	371.19	374.82	378.34
x1 = 0.6931	371.7	375.37	379.1	382.63
x1 = 0.7244	374.62	378.4	382.14	385.71
x1 = 0.785	380.94	384.83	388.57	392.14
x1 = 0.8149	384.44	388.32	392.05	395.57
x1 = 0.8633	390.63	394.43	398.1	401.56
x1 = 0.9107	397.48	401.14	404.65	407.96
x1 = 1	413.03	416.01	418.84	421.7

CCn1cc[n+](C)c1.F[B-](F)(F)F [1-ethyl-3-methylimidazolium tetrafluoroborate] + CCCCn1cc[n+](C)c1.F[B-](F)(F)F
molar heat capacity at constant pressure [J/K/mol]
Settings	293.15 K	298.15 K	303.15 K	308.15 K
x2 = 0	303.2	304.53	306.29	308.03
x2 = 0.0731	314.45	315.32	316.58	318.02
x2 = 0.1164	321.05	322.12	323.51	324.76
x2 = 0.1692	328.75	329.72	330.85	332.16
x2 = 0.2144	335.06	336	337.17	338.49
x2 = 0.2672	341.92	342.87	344.05	345.42
x2 = 0.3259	348.89	349.85	351.13	352.54
x2 = 0.3827	354.65	355.77	357.13	358.55
x2 = 0.4365	359.23	360.56	362.07	363.61
x2 = 0.4722	361.72	363.22	364.73	366.24
x2 = 0.535	365.27	367.01	368.62	370.2
x2 = 0.5968	367.7	369.31	370.93	372.58
x2 = 0.6379	368.54	370.31	371.89	373.53
x2 = 0.6857	369.02	370.78	372.53	374.23
x2 = 0.7446	369.21	371.07	372.68	374.41
x2 = 0.7732	368.94	370.9	372.67	374.4
x2 = 0.8293	368.08	370.08	371.76	373.59
x2 = 0.876	367.14	369.26	371.02	372.8
x2 = 0.9253	365.44	367.47	369.72	371.83
